Each structure is given as a SMILES string.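 Protocol summary: plate cells (96-well), add compound at 5 concentrations, incubate 48 h, interpolate endpoints linearly. GI50: concentration for 50% inhibition of growth.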 Active and inactive are the calls of the source. Rule as the data show it: active = GI50 up to about 1.1 µM and inactive = higher.

Test in all cases: inhibition of tumour cell growth, NCI panel, 48 h
Assay [1] relates to SF-268.
The subject of assay [2] is SNB-75.
For assay [3], the system named is HCC 2998.
The subject of assay [4] is HOP-92.
Assay [5] has as its system UO-31.
Assay [6] concerns 786-0.
For assay [7], the system named is UACC-62.
The subject of assay [8] is A549.
Assay [9] has as its system HCT-15.
In assay [10] the test system is NCI-H460.
The subject of assay [11] is SF-295.
For assay [12], the system named is Malme-3M.
Assay [13] has as its system SK-MEL-2.
In assay [14] the test system is SR.
Assay [15] relates to COLO 205.
Assay [16] has as its system OVCAR-5.
In assay [17] the test system is Hs-578T.
Assay [18] deals with NCI-H226.
Assay [19] has as its system MCF7.
Assay [20] deals with M14.

As to `COC(=O)c1c(OC(C)=O)ccc2c1c1c(OC(C)=O)c3ccccc3c(OC(C)=O)c1n2Cc1ccccc1`, the GI50 in [1] was 3.44 µM (inactive); in assay [2] it was 1.76 µM (inactive); in assay [3] it was 1.85 µM (inactive); in [4], 0.658 µM (active); in assay [5], 2.21 µM (inactive); in assay [6] it was 12.1 µM (inactive). Also, the GI50 is 2.72 µM (inactive) in [7]; 2.75 µM (inactive) in assay [8]; 4.78 µM in [9]; 2.24 µM (inactive) in assay [10]; 2.55 µM (inactive) in assay [11]; 7.8 µM (inactive) in assay [12]. In addition, the GI50 in assay [13] was 1.37 µM (inactive); in assay [14], 1.64 µM (inactive); in assay [15], 7.91 µM (inactive); in [16], 7.46 µM (inactive); in [17], 16.9 µM (inactive); in assay [18], 10.9 µM (inactive). Moreover, the GI50 is 13.5 µM (inactive) in assay [19] and 2.93 µM (inactive) in assay [20].
As for `C/C(=N\NC(=S)N1CCN(c2ccccn2)CC1)c1ccccn1`, the GI50 was 0.193 µM (active) in assay [1]; 3.23 µM (inactive) in [2]; 0.931 µM (active) in assay [3]; 0.0776 µM (active) in assay [4]; 0.998 µM (active) in assay [5]; 0.074 µM (active) in assay [6]. In addition, the GI50 in [7] is 0.00646 µM (active); in assay [8] it was 0.111 µM (active); in assay [9] it was 0.0219 µM; in assay [10], 0.252 µM (active); in assay [11], 0.00532 µM (active); in assay [12] it was 0.224 µM (active). Also, the GI50 in assay [13] is 1.25 µM (inactive); in assay [14], 0.0522 µM (active); in assay [15], 0.00419 µM (active); in assay [16] it was 0.0474 µM (active); in [17], 0.129 µM (active); in assay [18], 0.649 µM (active). Moreover, the values for the GI50 in [19] and in assay [20] were 0.00782 µM (active) and 0.0431 µM (active), respectively.
Regarding `CC(=O)OCC12C(OC(C)=O)C(=O)C3C(OC(C)=O)C14OC3(C)COC(=O)c1cccnc1C(C)C(C)C(=O)OC(C(OC(C)=O)C2OC(C)=O)C4(C)O` (stereo not given), the GI50 in assay [1], in assay [2], in assay [3], in assay [4], in assay [5] and in assay [6] was > 100 µM (inactive) in each case. For the same molecule, the GI50 in [7] is > 100 µM (inactive); in [8], > 100 µM (inactive); in [9] it was greater than 100 µM; in assay [10] it was > 100 µM (inactive); in [11], > 100 µM (inactive); in [12] it was > 100 µM (inactive). Further, the GI50 in assay [13] was > 100 µM (inactive); in [14], 42.6 µM (inactive); in [15] it was > 100 µM (inactive); in assay [16] it was > 100 µM (inactive); in assay [17], > 100 µM (inactive); in assay [18], > 100 µM (inactive). Also, the GI50 in assay [19] and in assay [20] was > 100 µM (inactive) throughout.
For the molecule `CCCCCCCCCCCCCCC[C@@H](O)C[N+](C)(C)CCO`, the GI50 is 1.72 µM (inactive) in assay [1]; 0.597 µM (active) in assay [2]; 1.8 µM (inactive) in assay [3]; 1.27 µM (inactive) in assay [4]; 7.01 µM (inactive) in assay [5]; 0.927 µM (active) in assay [6]. Besides, the GI50 was 3.92 µM (inactive) in assay [7]; 3.49 µM (inactive) in assay [8]; 2.6 µM in assay [9]; 1.52 µM (inactive) in assay [10]; 2.37 µM (inactive) in [11]; 2.81 µM (inactive) in assay [12]. The GI50 was 9.55 µM (inactive) in assay [13]; 1.72 µM (inactive) in assay [14]; 2.57 µM (inactive) in assay [15]; 2.24 µM (inactive) in [16]; 1.38 µM (inactive) in assay [17]; 2.79 µM (inactive) in [18]. For the same molecule, the GI50 in assay [19] is 5.85 µM (inactive); in assay [20], 3.62 µM (inactive).
On to `Cc1ccc(SCC(CF)OC(C)n2cnc3c(Cl)nc(N)nc32)cc1` (stereo not given), for which the GI50 in [1] was 96.8 µM (inactive); in [2], > 100 µM (inactive); in assay [3], > 100 µM (inactive); in assay [4], 59.8 µM (inactive); in assay [5] it was 42.5 µM (inactive); in [6] it was 58.7 µM (inactive). Further, the GI50 in assay [7] was > 100 µM (inactive); in assay [8], 44.7 µM (inactive); in assay [9] it was greater than 100 µM; in assay [10], 53 µM (inactive); in [11], 67.9 µM (inactive); in assay [12], 93.5 µM (inactive). In addition, the GI50 in assay [13] is 69.8 µM (inactive); in assay [14], 40 µM (inactive); in assay [15], > 100 µM (inactive); in assay [16], > 100 µM (inactive); in assay [17], > 100 µM (inactive); in assay [18], > 100 µM (inactive). Moreover, the GI50 is 27.2 µM (inactive) in assay [19] and > 100 µM (inactive) in assay [20].
`O=C(c1ccccc1)N(C(=O)c1ccccc1)c1nc(SCc2ccccc2)ns1`: the GI50 in assay [1] is 30.8 µM (inactive); in assay [2], 22.6 µM (inactive); in [3], 22.1 µM (inactive); in assay [4], 26.7 µM (inactive); in assay [5] it was 6.11 µM (inactive); in assay [6], 26.7 µM (inactive). In addition, the GI50 in assay [7] is 17.1 µM (inactive); in assay [8] it was 38.5 µM (inactive); in assay [9], 23.9 µM; in assay [10] it was 21.1 µM (inactive); in assay [11] it was 25.1 µM (inactive); in assay [12], 22.7 µM (inactive). For the same molecule, the GI50 was 21.9 µM (inactive) in assay [13]; 22.2 µM (inactive) in [14]; 18.7 µM (inactive) in assay [15]; 33.7 µM (inactive) in assay [16]; 26.1 µM (inactive) in assay [17]; 28.6 µM (inactive) in assay [18]. Moreover, the GI50 in assay [19] was 30.5 µM (inactive); in assay [20], 34.4 µM (inactive).
On to `CC/C(Cl)=N\OC(=O)Nc1ccc(F)c([N+](=O)[O-])c1`, for which the GI50 is 16.9 µM (inactive) in [1]; 18.2 µM (inactive) in assay [2]; 29.4 µM (inactive) in assay [3]; 5.14 µM (inactive) in assay [4]; 6.03 µM (inactive) in assay [5]; 6.64 µM (inactive) in assay [6]. Besides, the GI50 in [7] was 17.3 µM (inactive); in assay [8], 20.5 µM (inactive); in [9] it was 6.44 µM; in assay [10], 3.73 µM (inactive); in assay [11], 20.7 µM (inactive); in assay [12], 2.13 µM (inactive). Also, the GI50 in [13] was 17 µM (inactive); in assay [14] it was > 39.5 µM (inactive); in assay [15], 2.78 µM (inactive); in assay [16] it was 22.7 µM (inactive); in [17] it was 17.4 µM (inactive); in assay [18] it was 33.3 µM (inactive). Also, the GI50 in assay [19] was 8.81 µM (inactive); in [20], 10.3 µM (inactive).
As for `O=C1c2ccccc2C(=O)c2c1ccc1nc3c(nc21)-c1c2ccccc2cc2cccc-3c12`, the GI50 in [1] was 29.4 µM (inactive); in assay [2], 19.5 µM (inactive); in [3] it was > 95.3 µM (inactive); in assay [4], > 73.8 µM (inactive); in [5], 17.6 µM (inactive); in assay [6] it was 21.5 µM (inactive). Moreover, the GI50 in assay [7] is 26.5 µM (inactive); in assay [8], 45.6 µM (inactive); in assay [9], 29.4 µM; in assay [10] it was 26.2 µM (inactive); in assay [11], 21.4 µM (inactive); in [12], 51.9 µM (inactive). In addition, the GI50 in [13] is 68.9 µM (inactive); in assay [14] it was 5.27 µM (inactive); in assay [15], 90.8 µM (inactive); in assay [16] it was > 100 µM (inactive); in assay [17], 13.7 µM (inactive); in assay [18], > 68.9 µM (inactive). Besides, the GI50 in [19] is 17.6 µM (inactive); in assay [20] it was 32.4 µM (inactive).
`Cc1cc(C)c2ccc(N3CCNCC3)nc2n1`: the GI50 in assay [1] was > 100 µM (inactive); in [2], > 100 µM (inactive); in assay [3] it was > 100 µM (inactive); in assay [4], > 100 µM (inactive); in assay [5] it was 41.7 µM (inactive); in assay [6], 67.9 µM (inactive). Further, the GI50 in assay [7] is > 100 µM (inactive); in assay [8], > 100 µM (inactive); in [9], greater than 100 µM; in [10], > 100 µM (inactive); in [11], > 100 µM (inactive); in assay [12], > 100 µM (inactive). Further, the GI50 in assay [13] is > 100 µM (inactive); in assay [14], > 100 µM (inactive); in [15] it was 64.6 µM (inactive); in assay [16] it was > 100 µM (inactive); in assay [17] it was > 100 µM (inactive); in assay [18], > 100 µM (inactive). Besides, the GI50 in [19] and in [20] was > 100 µM (inactive) throughout.
For the molecule `C[N+]12CCCCC1C(CN1C(=O)Cc3c4ccccc4c(c4ccccc34)CC1=O)CCC2` (stereo not given), the GI50 in [1], in assay [2], in [3], in [4], in [5] and in assay [6] was > 100 µM (inactive) in each case. Also, the GI50 in [7] is > 100 µM (inactive); in assay [8] it was > 100 µM (inactive); in assay [9], greater than 100 µM; in [10] it was > 100 µM (inactive); in assay [11] it was > 100 µM (inactive); in [12] it was > 100 µM (inactive). For the same molecule, the GI50 in assay [13], in assay [14], in assay [15], in assay [16], in assay [17] and in [18] was > 100 µM (inactive) each time. Besides, the GI50 in assay [19] and in [20] was > 100 µM (inactive) each time.

(Values after ChEMBL document CHEMBL1201862, “PubChem BioAssay data set” (2004).)
